The results in this text go back to patent US11453660B2, “Androgen receptor and glucocorticoid receptor modulators” (ONCOSTELLAE, S.L., priority 2017, dated 2022).

The structures appear in SMILES notation. A value given as a limit tells only on which side of the number the result lay.

The target of one test is T1, human androgen receptor (Homo sapiens, UniProt P10275, T878A).
T1 construct: endogenously expressed human androgen receptor using the LnCap prostate cancer cell line; endogenous in cells; host or cells: LNCaP prostate cancer cell line (whole cells)
T1 sequence (P10275 1-920 T878A): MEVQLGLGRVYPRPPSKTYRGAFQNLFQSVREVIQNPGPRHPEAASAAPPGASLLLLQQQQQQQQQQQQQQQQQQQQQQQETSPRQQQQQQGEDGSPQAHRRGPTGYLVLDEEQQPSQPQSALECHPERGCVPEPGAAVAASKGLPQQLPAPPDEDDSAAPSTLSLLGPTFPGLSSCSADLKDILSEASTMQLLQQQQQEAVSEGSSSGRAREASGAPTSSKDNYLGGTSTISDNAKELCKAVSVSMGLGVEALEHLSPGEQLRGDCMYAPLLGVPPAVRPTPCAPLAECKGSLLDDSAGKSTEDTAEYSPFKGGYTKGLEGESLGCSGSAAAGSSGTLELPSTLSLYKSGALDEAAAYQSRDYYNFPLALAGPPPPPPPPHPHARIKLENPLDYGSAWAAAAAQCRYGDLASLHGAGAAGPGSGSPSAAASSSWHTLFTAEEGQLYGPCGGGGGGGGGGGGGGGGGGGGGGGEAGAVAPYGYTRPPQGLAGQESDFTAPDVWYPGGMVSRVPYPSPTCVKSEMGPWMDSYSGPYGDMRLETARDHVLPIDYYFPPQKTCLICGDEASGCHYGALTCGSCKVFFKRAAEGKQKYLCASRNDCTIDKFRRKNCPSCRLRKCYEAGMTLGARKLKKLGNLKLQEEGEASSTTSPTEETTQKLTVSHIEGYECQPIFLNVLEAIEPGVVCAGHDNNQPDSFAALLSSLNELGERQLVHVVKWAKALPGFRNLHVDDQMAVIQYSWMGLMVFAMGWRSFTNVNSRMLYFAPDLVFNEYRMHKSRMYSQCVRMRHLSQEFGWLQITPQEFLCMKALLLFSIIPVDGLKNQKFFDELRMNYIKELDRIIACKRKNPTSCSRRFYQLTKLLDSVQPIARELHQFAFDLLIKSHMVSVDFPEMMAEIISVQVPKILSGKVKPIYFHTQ
Nature of the test: Human Androgen Receptor Binding (radioligand binding, LnCap prostate cancer cell line). The conditions noted are these: LnCap cells, displacement of [^3H]-methyltrienolone, 2 hours at 37° C.; read-out: AR LNCaP. As to the method:
Human Androgen Receptor Binding
Radioligand binding studies were carried out on endogenously expressed human androgen receptor using the LnCap prostate cancer cell line. The test is based on measuring radioactively labelled AR ligand [^3H]-methyltrienolone that gets displaced by increasing concentrations of test compound. The test is performed in 96-well plates (Falcon, #353072). Positive and negative controls are also required in each analyzed plate to evaluate the total and non-specific binding binding of the radioligand to the receptor. Cells (60000 per well) were incubated for 24 hours before executing the experiment at 37° C. and in a 5% CO2 atmosphere. Medium was replaced by assay buffer (RPMI-640 (ATCC #30-2001) supplemented with 0.1% bovine serum albumin (Sigma #8806-56) and Triamcinolone acetonide (Sigma #T6501)). The compounds at the desired concentrations and [^3H]methyltrienolone (Perkin Elmer #NET590) were added to the wells.
In order to obtain a dose-response curve and calculate the potency of inhibition (expressed as IC50) for AR, a series of 1:10 dilutions in test in 1× buffer from 10 μM to 0.1 nM for each compound was carried out.
Cells were incubated for 2 hours at 37° C. in a 5% CO2 atmosphere and then washed twice with ice-cold HBSS. Then cells were lysed with solubilization buffer (Hank's Balanced Salt Solution (HBSS, Sigma #H6648), 0.5% Sodium dodecyl sulfate 0.5% (SDS, Sigma #L7390-500G, Lote: 078K0102) and 20% Glycerol (Sigma Aldrich, #G2025) for 30 minutes at RT. 75 μL aliquots were taken from each well and transferred to a 96-well flexiplate (Perkin Elmer #1450-401) and mixed with 100 μL of scintillation cocktail (Optiphase supermix, PerkinElmer, #1200-439). Plates are shaken for 60 minutes and radioactivity was measured in a beta scintillation counter (Microbeta Trilux, Perkin Elmer).

The target in test [1] is T2, Human Glucocorticoid Receptor (Homo sapiens, UniProt P04150).
T2 construct: endogenous in cells; host or cells: cytosol from IM-9 cell line
T2 sequence (P04150 1-777): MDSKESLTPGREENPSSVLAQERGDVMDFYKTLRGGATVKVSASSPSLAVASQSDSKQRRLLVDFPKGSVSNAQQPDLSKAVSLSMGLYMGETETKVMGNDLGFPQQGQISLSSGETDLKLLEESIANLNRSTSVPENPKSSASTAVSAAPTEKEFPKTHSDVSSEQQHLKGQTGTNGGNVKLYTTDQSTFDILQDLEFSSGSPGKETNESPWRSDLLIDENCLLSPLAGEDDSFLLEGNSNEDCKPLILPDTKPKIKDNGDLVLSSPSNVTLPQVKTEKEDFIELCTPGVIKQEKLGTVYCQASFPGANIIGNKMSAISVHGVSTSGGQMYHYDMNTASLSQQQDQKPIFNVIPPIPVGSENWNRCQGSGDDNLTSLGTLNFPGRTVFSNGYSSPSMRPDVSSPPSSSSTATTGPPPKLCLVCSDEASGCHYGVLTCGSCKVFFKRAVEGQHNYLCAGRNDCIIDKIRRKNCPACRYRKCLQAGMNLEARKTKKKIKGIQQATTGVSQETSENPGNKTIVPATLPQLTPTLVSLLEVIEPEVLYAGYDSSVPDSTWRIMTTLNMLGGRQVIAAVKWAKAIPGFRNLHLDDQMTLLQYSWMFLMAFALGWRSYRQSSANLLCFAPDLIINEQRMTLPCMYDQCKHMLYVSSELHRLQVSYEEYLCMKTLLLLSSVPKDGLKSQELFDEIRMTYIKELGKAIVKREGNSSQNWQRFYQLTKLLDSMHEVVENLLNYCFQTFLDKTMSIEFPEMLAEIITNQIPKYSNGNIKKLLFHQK
Briefly: Competition Binding in IM-9 Human Glucocorticoid Receptor (GR IM-9). To be noted: cytosol from IM-9 cell line, 1.5 nM [3H]-Dexamethasone, 4° C. for 6 hours. The procedure, abridged: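 Radioligand competition using 100 μg IM-9 cell cytosol and 1.5 nM [3H]-dexamethasone, incubated 6 h at 4° C in TES/molybdate buffer, pH 7.4. Filtration on PEI-treated GF/B filters, scintillation counting; nonspecific binding defined with 10 μM triamcinolone.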

Take `COC(=O)C1=C(C2CC2)NC(C)=C(C(C)=O)C1c1csc2c(C#N)cccc12` (stereo not shown) [Example J28, Methyl 5-acetyl-4-(7-cyanobenzo[b]thiophen-3-yl)-2-cyclopropyl-6-methyl-1,4-dihydropyridine-3-carboxylate]: the IC50 (on human androgen receptor; in test [1]) was below 100 nM each time.
Take `CC(=O)C1=C(C)NC(N)=C(C(=O)OC2CCCCC2)C1c1csc2c(C#N)cccc12` (stereo not shown) [Example D29, Cyclohexyl 5-acetyl-2-amino-4-(7-cyanobenzo[b]thiophen-3-yl)-6-methyl-1,4-dihydropyridine-3-carboxylate]: the IC50 is 100 to 1000 nM on human androgen receptor and below 100 nM in test [1].
On to `CC(=O)C1=C(C)NC(C(F)(F)F)=C(C(=O)OCc2ccccc2)C1c1csc2ncccc12` (stereo not shown) [Example C56, Benzyl 5-acetyl-6-methyl-4-(thieno[2,3-b]pyridin-3-yl)-2-(trifluoromethyl)-1,4-dihydropyridine-3-carboxylate], for which the IC50 on human androgen receptor is 100 to 1000 nM; in test [1], below 100 nM.
The matching figures for `CC(=O)C1=C(C)NC(C)=C(C(=O)OCc2ccc(F)cc2)C1c1csc2ncccc12` (stereo not shown) [Example C47, 4-Fluorobenzyl 5-acetyl-2,6-dimethyl-4-(thieno[2,3-b]pyridin-3-yl)-1,4-dihydropyridine-3-carboxylate]: 100 to 1000 nM and below 100 nM.
As to `COC(=O)C1=C(C(F)(F)F)NC(C)=C(C(C)=O)C1c1csc2ccc(Cl)cc12` (stereo not shown) [Example C38, Methyl 5-acetyl-4-(5-chlorobenzo[b]thiophen-3-yl)-6-methyl-2-(trifluoromethyl)-1,4-dihydropyridine-3-carboxylate], the IC50 at human androgen receptor was below 100 nM.
With `COC(=O)C1=C(C)NC(N)=C(C(=O)OCC2C(C)(C)C2(F)F)C1c1csc2c(C#N)cccc12` (stereo not shown) [Example D42, 3-((2,2-Difluoro-3,3-dimethylcyclopropyl)methyl) 5-methyl 2-amino-4-(7-cyanobenzo[b]thiophen-3-yl)-6-methyl-1,4-dihydropyridine-3,5-dicarboxylate], the figures for the IC50 (at human androgen receptor; in test [1]) were 100 to 1000 nM and below 100 nM, respectively.
As to `COC(=O)C1=C(C2CC2)NC(C)=C(C(C)=O)C1c1csc2c(C(=O)OC)cccc12` (stereo not shown) [Example J29, Methyl 5-acetyl-2-cyclopropyl-4-(7-(methoxycarbonyl)benzo[b]thiophen-3-yl)-6-methyl-1,4-dihydropyridine-3-carboxylate], the IC50 on human androgen receptor was 100 to 1000 nM.
As to `COC(=O)C1=C(C(=O)OC)C(c2csc3c(C#N)cccc23)C(C(C)=O)=C(C)N1` (stereo not shown) [Example I2, Dimethyl 5-acetyl-4-(7-cyanobenzo[b]thiophen-3-yl)-6-methyl-1,4-dihydropyridine-2,3-dicarboxylate], the IC50 (on human androgen receptor; in test [1]) was 100 to 1000 nM in each case.
With `CC1=C(C#N)C(c2csc3c(C#N)cccc23)C(C(=O)OCc2ccc(F)cc2)=C(N)N1` (stereo not shown) [Example D25, 4-Fluorobenzyl 2-amino-5-cyano-4-(7-cyanobenzo[b]thiophen-3-yl)-6-methyl-1,4-dihydropyridine-3-carboxylate], the IC50 was at least 1000 nM at human androgen receptor and below 100 nM in test [1].
Consider `COC(=O)C1=C(C(F)(F)F)NC(C)=C(C(C)=O)C1c1csc2ncccc12` (stereo not shown) [Example C53, Methyl 5-acetyl-6-methyl-4-(thieno[2,3-b]pyridin-3-yl)-2-(trifluoromethyl)-1,4-dihydropyridine-3-carboxylate], for which, at human androgen receptor, the IC50 was below 100 nM.
For `CC#CCOC(=O)C1=C(C)NC(N)=C(C(=O)OCC2CC2)C1c1csc2c(C#N)cccc12` (stereo not shown) [Example D49, 5-(But-2-yn-1-yl) 3-(cyclopropylmethyl) 2-amino-4-(7-cyanobenzo[b]thiophen-3-yl)-6-methyl-1,4-dihydropyridine-3,5-dicarboxylate], the IC50 (at human androgen receptor; in test [1]) was below 100 nM each time.
As to `COC(=O)C1=C(C)NC(N)=C(C(=O)OCC2CCC2)C1c1csc2c(C#N)cccc12` (stereo not shown) [Example D33, 3-(Cyclobutylmethyl) 5-methyl 2-amino-4-(7-cyanobenzo[b]thiophen-3-yl)-6-methyl-1,4-dihydropyridine-3,5-dicarboxylate], the IC50 on human androgen receptor is 100 to 1000 nM; in test [1], below 100 nM.
The matching figures for `CC(=O)C1=C(C)NC(C)=C(C(=O)OC2CCOCC2)C1c1csc2ncccc12` (stereo not shown) [Example C78, Tetrahydro-2H-pyran-4-yl 5-acetyl-2,6-dimethyl-4-(thieno[2,3-b]pyridin-3-yl)-1,4-dihydropyridine-3-carboxylate]: at least 1000 nM and 100 to 1000 nM.
For the compound `CC(=O)C1=C(C)NC(C)=C(C(=O)OCC2CC2)C1c1csc2ccc(Cl)cc12` (stereo not shown) [Example C32, Cyclopropylmethyl 5-acetyl-4-(5-chlorobenzo[b]thiophen-3-yl)-2,6-dimethyl-1,4-dihydropyridine-3-carboxylate], the IC50 at human androgen receptor is at least 1000 nM.
Still for that read-out and setting: then `COC(=O)C1=C(C2CC2)NC(C)=C(C(C)=O)C1c1csc2c(C(=O)O)cccc12` (stereo not shown) [Example J30, 3-(3-Acetyl-6-cyclopropyl-5-(methoxycarbonyl)-2-methyl-1,4-dihydropyridin-4-yl)benzo[b]thiophene-7-carboxylicacid], with at least 1000 nM.
Still for that read-out and setting: then `CC(=O)C1=C(C)NC(C)=C(C(C)=O)C1c1csc2c(C#N)cccc12` [Example J40, 3-(3,5-diacetyl-2,6-dimethyl-1,4-dihydropyridin-4-yl)benzo[b]thiophene-7-carbonitrile], with at least 1000 nM.
The same measure, in the same setting: with `CC(=O)C1=C(C)NC(C(F)(F)F)=C(C(=O)OCc2ccccc2)C1c1csc2ccccc12` (stereo not shown) [Example C45, Benzyl 5-acetyl-4-(benzo[b]thiophen-3-yl)-6-methyl-2-(trifluoromethyl)-1,4-dihydropyridine-3-carboxylate] the figure was at least 1000 nM; with `COC(=O)C1=C(C2CC2)NC(C)=C(C(C)=O)C1c1csc2ccc(Cl)cc12` (stereo not shown) [Example J25, Methyl 5-acetyl-4-(5-chlorobenzo[b]thiophen-3-yl)-2-cyclopropyl-6-methyl-1,4-dihydropyridine-3-carboxylate], 100 to 1000 nM.
